According to patent US20040028746A1, “Crystalline drug particles prepared using a controlled precipitation (recrystallization) process” (priority 2002, published 2004):

Key:
[1] = Average crystalline domain size and crystallinity by X-ray diffraction; type: physicochemical; conditions: comparative particles as received or wet-milled (Table B)
Protocol: As used herein the term “essentially crystalline” is defined to mean that the particles are at least 90% crystalline as measured using X-ray diffraction techniques.
0.3 g of the drug was dissolved in 6 ml of the organic solvent, which may contain 0.3 g of a stabilizer. The organic solution was injected at 2 degrees C. with vigorous stirring into 30.0 g of the aqueous phase, which may contain a second stabilizer. The solvent was stripped from the resulting slurry, and the slurry freeze dried to yield a powder. […] Average size of the crystalline domains was determined using X-ray diffraction as known by those skilled in the art of particle size measurement, using Jade XRD pattern processing software (v.6).
(§1) Dissolution was monitored for 5 minutes by the loss in turbidity.

[2] = Dissolution by turbidity method (loss in turbidity); type: physicochemical; conditions: loss in turbidity monitored for 5 minutes
Protocol: as §1, §1

Compound | Crystalline Domain [1] | Percent of Dissolution after 5 min. ([2]; Carbamazepine sample: deionized water) | Percent of Dissolution after 5 min. ([2]; Danazol samples: deionized water plus sodium dodecyl sulfate)
COc1ccc2cc([C@H](C)C(=O)O)ccc2c1 [compound 22, Naproxen] | 646 Å |  | 
NC(=O)N1c2ccccc2C=Cc2ccccc21 [compound 23, Carbamazepine] | 475 Å | 100% | 
C#C[C@]1(O)CC[C@H]2[C@@H]3CCC4=Cc5oncc5C[C@]4(C)[C@H]3CC[C@@]21C [compound 24, Danazol/USP 24] | 404 Å |  | 91%
